Data published in paper PMC6774072, “Azologization and repurposing of a hetero-stilbene-based kinase inhibitor: towards the design of photoswitchable sirtuin inhibitors” (Beilstein Journal of Organic Chemistry, 2019).
Read-outs that look alike come from different tables or passages of the source.

Tests used:
Sirt2 = biological target: T1, Sirt2 (Homo sapiens, UniProt Q8IXJ6); test: fluorescence-based deacetylase assay with Z-Lys(acetyl)-AMC (ZMAL) substrate; type: biochemical; settings: read-out: Sirt2 inhibition IC50
T1 construct: Sirt2_56−356; made in house
T1 sequence (Q8IXJ6 56-356): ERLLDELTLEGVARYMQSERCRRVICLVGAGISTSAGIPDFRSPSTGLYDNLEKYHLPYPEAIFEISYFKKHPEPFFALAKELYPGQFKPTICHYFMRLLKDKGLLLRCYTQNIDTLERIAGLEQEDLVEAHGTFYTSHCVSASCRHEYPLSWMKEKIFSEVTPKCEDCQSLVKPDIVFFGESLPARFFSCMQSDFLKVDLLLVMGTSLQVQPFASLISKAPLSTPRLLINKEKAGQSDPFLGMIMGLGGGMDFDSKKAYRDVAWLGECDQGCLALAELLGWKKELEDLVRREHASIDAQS
Experimental: The influence on deacetylase activity of three human sirtuin isoforms (Sirt1–3) was determined in a fluorescence-based assay, using Z-Lys(acetyl)-AMC (ZMAL) as a substrate. Compared to the lead structure 2a, all compounds except 2e–h show increased inhibitory activity against Sirt2 (Table 1). […] Moreover, a slight increase in selectivity for Sirt2 and Sirt3 over Sirt1 could be observed for 2c, 4a and 4b. […] Though not photoswitchable, compounds 4a and 4b were synthesized to test the influence of a rigid conformation around the C=C double bond on sirtuin inhibition. […] A recently developed fluorescence polarization (FP)-based assay enables mapping of ligand binding to this specific binding site. For 2a an interaction with the selectivity pocket was already implied in the same work. Additionally performed docking studies proposed a binding mode in which 2a mimics the nicotinamide residue of NAD^+, whereas aromatic amino acid residues of the selectivity pocket stabilize the dimethylphenol ring. As photoisomerization in stilbenes and azo dyes is accompanied by a perpendicular twist of the phenyl ring towards the former molecular plane, we assumed that this conformational change should provoke a differential binding situation at least for the dimethylphenol residue in 2a. Unfortunately, binding of 2b and c could not be localised in the vicinity of the selectivity pocket of Sirt2, so that the binding pose remains unclear.
The photoswitchable diazeno compound 11 was subjected to biological evaluation to test the effect of photoisomerization on the inhibitory activity. The enzyme assay mixture containing 11 was exposed to 5 minutes of 365 nm radiation and compared with the results of a non-irradiated measurement. […] Unfortunately, 365 nm radiation turned out to have only minor effects on the IC50 values of 11 (Table 3).
Cloning, expression and purification of recombinant proteins: Expression and purification of Sirt1_133-747, Sirt2_56−356, and Sirt3_118−395 was carried out as described previously. Identity and purity were verified by SDS-PAGE [65]. Protein concentration was determined by the Bradford assay.
Bioassay: The inhibitory effect of compounds 2a–h, 4a/b, 8a and 11 on Sirt1–3 was detected via a previously reported fluorescence based assay. The synthetic substrate Z-Lys(acetyl)-AMC (ZMAL) is deacetylated by sirtuins, followed by tryptic digestion and thereby release of […], leading to a fluorescent readout. Inhibition was determined by comparing percentage substrate conversion to a DMSO control after subtraction of the blank fluorescence signal. All compounds were tested at 100 µM, 50 µM and 10 µM, respectively. […] IC50 values were calculated with OriginPro 9.0 G using a non-linear regression to fit the dose response curve. An enzyme-free blank control and a 100% conversion control using AMC instead of ZMAL were measured as well. Inhibition measurements were performed in biological duplicates for all compounds.

[1] = isomer composition of 11 at thermal equilibrium and photostationary states, HPLC with UV–vis detection at the isosbestic points; type: physicochemical
Description: The photoisomerization could be reversed by exposure to visible light, i.e. 452 nm, albeit the PSS at 452 nm still comprised about 25% of (Z)-11 as determined by HPLC analysis using UV–vis detection at the isosbestic points (Table 2). Light of 500 nm could also reverse photoisomerization, but was not as effective as 452 nm radiation. […] Switching between the two PSS could be repeated several times without any observable fatigue of the compound (Figure 5).
Photochemistry: All photoisomerization experiments were conducted under ruby light of 630 nm. Illumination was executed using a Bio-Link 254 Crosslinker from Vilber-Lourmat equipped with six Vilber-Lourmat T8-C lamps (8 W, 254 nm) or six Vilber-Lourmat T8-L lamps (8W, 365 nm), respectively. Visible light radiation of 630 nm (red), 500 nm (green) and 452 nm (blue) was derived from a Paulmann FlexLED 3D strip. All compounds were irradiated in solution, using spectrophotometric grade solvents. Photoisomerization and UV–vis spectra measurement was conducted in quartz cuvettes at room temperature. […]
of 11 (1 mM) were injected before and after 5 minutes of 365 nm or 1 minute of 452 nm irradiation. Isocratic elution with 60% MeOH and 40% water (+ 0.1% HCOOH) for 12 minutes at 1 mL∙min−1 was applied and gave complete separation of the isomers. Integration of the peak areas at the isosbestic points (λobs = 244 nm and 270 nm) gave the relative percentage of (E)-11 and (Z)-11, respectively (Figure S5).
Table S1. Isomer composition ((E)-11 / (Z)-11) at the thermal equilibrium (∆) and the PSS after 5 minutes of 365 nm and 1 minute of 452 nm radiation. […]

[2] = PSS thermal half-life of 11 by UV/Vis spectroscopy; type: physicochemical; settings: PSS after 365 nm irradiation; 50 µM in 5% DMSO (v/v) in enzyme assay buffer
Experimental: PSS thermal half-life of 11
The thermal half-life of 11 after 5 minutes of 365 nm irradiation was determined by UV/Vis-spectroscopy. Therefore, a 50 µM solution of 11 in 5% DMSO (v/v) in enzyme assay buffer was prepared and an initial spectrum of the thermal equilibrium recorded. After 5 minutes of irradiation with 365 nm the increase of absorbance at the thermal equilibrium maximum ( λ = 324 nm) was followed over a period of 96 hours (Figure S6). Absorbance at 324 nm was plotted as a function of time. A non-linear regression yielded the half-live of the PSS. Due to the slow rate of thermal isomerization only a short period could be measured. Therefore the limit value was set to 0.939 as this was the absorbance at 324 nm of 11 at the thermal […]
Figure S6: 11 (50 µM) in 5% DMSO (v/v) in enzyme assay buffer after 5 minutes of 365 nm irradiation. Absorbance at 324 nm of plotted as a function of time with non-linear fit (red line).
(1 picture or pasted object on this page, not shown here)
Table S2: Non-linear fit of measured values.

- IC50 (Sirt2; photostationary state (PSS) after 5 minutes of 365 nm irradiation): 24.1 ± 1.69 µM
- IC50 (Sirt2; thermal equilibrium (∆), non-irradiated): 18.9 ± 1.38 µM
- percentage of (Z)-11 in PSS ([1]; 365 nm irradiation): 84%
- percentage of (Z)-11 in PSS ([1]; 452 nm irradiation, HPLC, UV–vis detection at isosbestic points): about 25%
- Isomer composition ((E)-11 / (Z)-11) ([1]; PSS (365 nm), 5 minutes, λobs 244 nm): 17 / 83
- Isomer composition ((E)-11 / (Z)-11) ([1]; PSS (365 nm), 5 minutes, λobs 270 nm): 16 / 84
- Isomer composition ((E)-11 / (Z)-11) ([1]; PSS (452 nm), 1 minute, λobs 244 nm): 76 / 24
- Isomer composition ((E)-11 / (Z)-11) ([1]; PSS (452 nm), 1 minute, λobs 270 nm): 74 / 26
- Isomer composition ((E)-11 / (Z)-11) ([1]; thermal equilibrium (∆), λobs 244 nm): 98 / 2
- Isomer composition ((E)-11 / (Z)-11) ([1]; thermal equilibrium (∆), λobs 270 nm): 99 / 1
- t½ of PSS (thermal) [2]: 12.5 days
SMILES: NC(=O)c1cncc(N=Nc2ccc(F)cc2)c1 [Compound 11, 5-[(4-Fluorophenyl)diazenyl]nicotinamide]
